Earlier results on one substance are cited in PMC5082644 (Molecular Vision, 2016).

The subject of this data set is complement activation / C5b-9n (MAC) deposition in human fetal RPE cell cultures. Conditions: among peptides with polar dipeptides added at the N-terminus.

Consider “Ac-RSI[CV(meW)QDWGAHRC]T-NH2 (disulfide)”, for which the “Efficacy in the human RPE cell-based assay” value is “most efficacious”.
